Experimental data taken from PubChem BioAssay AID248 (DTP/NCI, 2004).
Several values for one entry are separate records, joined by “and”; a condition that tells them apart may be missing. Equal values may be shown once. Toxic doses and inconclusive results are not listed. No stated cut-off is given here; in the data, active means T/C of 150% or more; inactive means T/C below 125%.

Tested on: L1210 leukemia ip in BDF1 mice, survival T/C
Assay: NCI In Vivo Anticancer Drug Screen. Data for tumor model L1210 Leukemia (intraperitoneal) in B6D2F1 (BDF1) mice
Conditions: endpoint: mean survival time, higher = longer survival
Summary of the method: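 Antitumor effect is assessed in tumor-bearing animals. Survival in the compound arm is compared with a vehicle-dosed control arm and expressed as their quotient.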

[1] = dose: 100.0 mg/kg/injection, schedule: Q01DX001 (ip), vehicle: carboxymethylcellulose (CMC)
[2] = dose: 200.0 mg/kg/injection, schedule: Q01DX001 (ip), vehicle: carboxymethylcellulose (CMC)
[3] = dose: 400.0 mg/kg/injection, schedule: Q01DX001 (ip), vehicle: carboxymethylcellulose (CMC)
[4] = dose: 5.0 mg/kg/injection, schedule: Q01DX001 (ip), vehicle: saline
[5] = dose: 10.0 mg/kg/injection, schedule: Q01DX001 (ip), vehicle: saline
[6] = dose: 20.0 mg/kg/injection, schedule: Q01DX001 (ip), vehicle: saline
[7] = dose: 40.0 mg/kg/injection, schedule: Q01DX001 (ip), vehicle: saline
[8] = dose: 100.0 mg/kg/injection, schedule: Q04DX003 (ip), vehicle: Klucel (hydroxypropylcellulose) (HPC)
[9] = dose: 200.0 mg/kg/injection, schedule: Q04DX003 (ip), vehicle: Klucel (hydroxypropylcellulose) (HPC)
[10] = dose: 400.0 mg/kg/injection, schedule: Q04DX003 (ip), vehicle: Klucel (hydroxypropylcellulose) (HPC)
[11] = dose: 100.0 mg/kg/injection, schedule: Q01DX009 (ip), vehicle: Klucel (hydroxypropylcellulose) (HPC)
[12] = dose: 200.0 mg/kg/injection, schedule: Q01DX009 (ip), vehicle: Klucel (hydroxypropylcellulose) (HPC)

Measured: T/C

CCC1C(=O)OC2OC(c3ccccc3)(c3ccccc3)NC21 (configuration not stated)
inactive: [1] 88 % of control | [2] 88 % of control | [3] 90 % of control

C/C(=N/NC(N)=S)c1c(C)[nH]c2ccccc12
inactive: dose: 10.0 mg/kg/injection, schedule: Q01DX001 (ip), vehicle: acetone 96 % of control | dose: 20.0 mg/kg/injection, schedule: Q01DX001 (ip), vehicle: acetone 96 % of control | dose: 40.0 mg/kg/injection, schedule: Q01DX001 (ip), vehicle: acetone 95 % of control

COc1cc(O)c2ncccc2c1O
inactive: [4] 95 % of control | [5] 101 % of control | [6] 106 % of control | dose: 35.0 mg/kg/injection, schedule: Q01DX001 (ip), vehicle: saline 86 % of control and 91 % of control | [7] 103 % of control | dose: 50.0 mg/kg/injection, schedule: Q01DX001 (ip), vehicle: saline 93 % of control and 89 % of control

CCOC(=O)COc1cc(Cl)c(S(=O)(=O)F)cc1Cl
inactive: [8] 96 % of control | [9] 104 % of control | [10] 91 % of control

CCCCCCCCCCCCCCCCCC(=O)NCC#CCN1CCCC1
inactive: [4] 97 % of control | [5] 94 % of control | [6] 100 % of control | dose: 25.0 mg/kg/injection, schedule: Q01DX009 (ip), vehicle: Klucel (hydroxypropylcellulose) (HPC) 96 % of control | [7] 105 % of control | dose: 50.0 mg/kg/injection, schedule: Q01DX009 (ip), vehicle: Klucel (hydroxypropylcellulose) (HPC) 95 % of control | dose: 80.0 mg/kg/injection, schedule: Q01DX001 (ip), vehicle: saline 94 % of control | [11] 90 % of control | dose: 400.0 mg/kg/injection, schedule: Q01DX001 (ip), vehicle: saline 104 % of control

O=C(NC(=O)C(Cl)Cl)Nc1cccc2c1-c1ccccc1C2
inactive: dose: 100.0 mg/kg/injection, schedule: Q01DX001 (ip), vehicle: Klucel (hydroxypropylcellulose) (HPC) 94 % of control | [11] 108 % of control | [8] 88 % of control | dose: 200.0 mg/kg/injection, schedule: Q01DX001 (ip), vehicle: Klucel (hydroxypropylcellulose) (HPC) 97 % of control | [12] 100 % of control | [9] 92 % of control | dose: 400.0 mg/kg/injection, schedule: Q01DX001 (ip), vehicle: Klucel (hydroxypropylcellulose) (HPC) 92 % of control | [10] 93 % of control

CCC(O)c1cnc(OCc2ccccc2)nc1OCc1ccccc1 (configuration not stated)
inactive: [11] 94 % of control | [8] 96 % of control | [12] 95 % of control | [9] 95 % of control | dose: 400.0 mg/kg/injection, schedule: Q01DX009 (ip), vehicle: Klucel (hydroxypropylcellulose) (HPC) 90 % of control | [10] 100 % of control

CC(C)N(C(=O)Nc1cc(C(F)(F)F)ccc1Cl)C1CCCCC1
inactive: [1] 95 % of control | dose: 100.0 mg/kg/injection, schedule: Q01DX009 (ip), vehicle: carboxymethylcellulose (CMC) 92 % of control and 88 % of control | dose: 100.0 mg/kg/injection, schedule: Q04DX002 (ip), vehicle: carboxymethylcellulose (CMC) 97 % of control | dose: 100.0 mg/kg/injection, schedule: Q04DX003 (ip), vehicle: carboxymethylcellulose (CMC) 96 % of control | [2] 90 % of control | dose: 200.0 mg/kg/injection, schedule: Q01DX009 (ip), vehicle: carboxymethylcellulose (CMC) 93 % of control and 100 % of control | dose: 200.0 mg/kg/injection, schedule: Q04DX002 (ip), vehicle: carboxymethylcellulose (CMC) 98 % of control and 108 % of control | dose: 200.0 mg/kg/injection, schedule: Q04DX003 (ip), vehicle: carboxymethylcellulose (CMC) 96 % of control | [3] 93 % of control | dose: 400.0 mg/kg/injection, schedule: Q01DX009 (ip), vehicle: carboxymethylcellulose (CMC) 95 % of control | dose: 400.0 mg/kg/injection, schedule: Q04DX002 (ip), vehicle: carboxymethylcellulose (CMC) 87 % of control and 90 % of control | dose: 400.0 mg/kg/injection, schedule: Q04DX003 (ip), vehicle: carboxymethylcellulose (CMC) 91 % of control

O=c1cc(C[n+]2ccccc2)[nH]c(=O)[nH]1
inactive: dose: 100.0 mg/kg/injection, schedule: Q04DX003 (ip), vehicle: saline 89 % of control | dose: 200.0 mg/kg/injection, schedule: Q04DX003 (ip), vehicle: saline 89 % of control
